# Read-outs that look alike come from different tables or passages of the source.
# Experiments:
# human DGKα = target: T1, human DGKα (Homo sapiens, UniProt P23743); experiment: DGKα LIPGLO assay (extruded liposome substrate), in vitro DGK inhibition; type: biochemical; conditions: read-out: DGKa LIPGLO IC50
# T1 construct: TVMV protease cleavage site (C); Hexa-His (C); made in house; host or cells: Sf9 insect cells (baculovirus, Bac-to-Bac)
# human DGKζ = target: T2, human DGKζ (Homo sapiens, UniProt Q13574); experiment: DGKζ LIPGLO assay (extruded liposome substrate), in vitro DGK inhibition; type: biochemical; conditions: read-out: DGKz LIPGLO IC50
# T2 construct: TVMV protease cleavage site (C); Hexa-His (C); made in house; host or cells: Sf9 insect cells (baculovirus, Bac-to-Bac)
# T2 sequence (Q13574 with tags, fused parts or gaps isoform Q13574-4): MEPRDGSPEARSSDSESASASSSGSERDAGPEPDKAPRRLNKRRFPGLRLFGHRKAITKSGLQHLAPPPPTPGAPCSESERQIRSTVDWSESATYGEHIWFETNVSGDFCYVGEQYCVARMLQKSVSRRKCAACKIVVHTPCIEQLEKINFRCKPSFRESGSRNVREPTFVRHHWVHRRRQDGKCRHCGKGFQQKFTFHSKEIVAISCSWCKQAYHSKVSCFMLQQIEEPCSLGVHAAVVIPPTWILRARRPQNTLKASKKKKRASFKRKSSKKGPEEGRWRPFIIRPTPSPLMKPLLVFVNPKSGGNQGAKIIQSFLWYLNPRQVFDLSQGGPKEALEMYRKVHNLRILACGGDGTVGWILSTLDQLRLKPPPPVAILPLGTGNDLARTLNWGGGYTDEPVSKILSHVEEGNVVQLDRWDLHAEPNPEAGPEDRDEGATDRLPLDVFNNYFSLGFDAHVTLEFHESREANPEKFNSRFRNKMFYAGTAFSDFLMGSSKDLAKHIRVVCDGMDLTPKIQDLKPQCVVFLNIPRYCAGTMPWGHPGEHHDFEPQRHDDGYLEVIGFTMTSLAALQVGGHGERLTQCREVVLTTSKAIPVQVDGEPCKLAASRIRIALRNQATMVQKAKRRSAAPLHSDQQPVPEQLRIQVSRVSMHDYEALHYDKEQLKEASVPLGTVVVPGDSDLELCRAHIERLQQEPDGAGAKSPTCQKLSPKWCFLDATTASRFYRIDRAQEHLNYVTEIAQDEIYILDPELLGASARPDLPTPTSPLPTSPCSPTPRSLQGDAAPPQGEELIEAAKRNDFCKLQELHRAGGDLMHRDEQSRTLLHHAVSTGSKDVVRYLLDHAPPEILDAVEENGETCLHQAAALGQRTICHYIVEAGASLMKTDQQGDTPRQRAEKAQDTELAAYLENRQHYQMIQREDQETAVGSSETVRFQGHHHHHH
# Human venous whole blood = experiment: Human whole blood IFN-γ assay; type: cell-based; conditions: human whole blood, read-out: INFg Whole Blood Normalized Agonist EC50;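 also: blood from healthy donors exposed to compound for 1 h before stimulation with anti-CD3 and anti-CD28 at 1 µg/mL each, IFN-γ quantified in supernatant by AlphaLISA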
# [1] = Homo sapiens, 24 h, normalized to 3 μM reference compound with anti-CD3 plus anti-CD28 as 100% activation
# [2] = anti-CD3 plus anti-CD28, 24 hours, 3 μM reference compound = 100% activation
# [3] = normalized to 3 μM reference compound with anti-CD3 plus anti-CD28 as 100% activation
# [4] = Homo sapiens, 24 h, anti-CD3 plus anti-CD28, 24 hours, 3 μM reference compound = 100% activation
# T1 sequence (P23743 with tags, fused parts or gaps): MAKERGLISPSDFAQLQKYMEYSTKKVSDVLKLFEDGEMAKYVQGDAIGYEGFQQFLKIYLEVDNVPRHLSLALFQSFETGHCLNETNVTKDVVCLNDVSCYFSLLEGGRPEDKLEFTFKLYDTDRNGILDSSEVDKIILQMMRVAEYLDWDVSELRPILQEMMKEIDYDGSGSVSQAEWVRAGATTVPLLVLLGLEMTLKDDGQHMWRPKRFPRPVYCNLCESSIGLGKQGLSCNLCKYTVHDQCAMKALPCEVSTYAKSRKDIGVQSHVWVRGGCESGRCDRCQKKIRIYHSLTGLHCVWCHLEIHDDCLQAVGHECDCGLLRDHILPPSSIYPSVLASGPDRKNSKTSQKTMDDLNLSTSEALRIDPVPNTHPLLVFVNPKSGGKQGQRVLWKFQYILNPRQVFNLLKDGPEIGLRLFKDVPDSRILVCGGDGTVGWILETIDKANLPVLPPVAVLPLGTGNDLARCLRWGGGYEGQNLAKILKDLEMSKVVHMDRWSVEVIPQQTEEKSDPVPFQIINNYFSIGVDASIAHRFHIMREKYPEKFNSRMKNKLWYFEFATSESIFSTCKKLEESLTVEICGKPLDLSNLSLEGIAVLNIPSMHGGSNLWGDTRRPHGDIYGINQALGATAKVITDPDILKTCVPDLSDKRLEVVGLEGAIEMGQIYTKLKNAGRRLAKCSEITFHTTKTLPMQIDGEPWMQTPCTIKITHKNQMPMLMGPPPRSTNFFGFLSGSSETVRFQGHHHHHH
IC50 (human DGKα; liposome (LIPGLO) assay),IC50 (human DGKζ; liposome (LIPGLO) assay),IC50 (human DGKα; DGKα liposome (LIPGLO) assay),IC50 (human DGKζ; DGKζ liposome (LIPGLO) assay),SMILES,EC50 (Human venous whole blood; [1]),EC50 (Human venous whole blood; [2]),EC50 (Human venous whole blood; [3]),EC50 (Human venous whole blood; [4])
1600 nM,1800 nM,,,"C[C@@H]1CN(c2cc(=O)n(C)c3ccc(C#N)nc23)[C@@H](C)CN1C(c1ccc(OC(F)(F)F)cc1F)C1CC1 (single isomer, unassigned) [Example 480]",4900 nM,,,
,,22000 nM,2800 nM,"C[C@@H]1CN(c2c(C#N)c(=O)n(C)c3ccc(C#N)nc23)[C@@H](C)CN1C(c1cccc(F)c1)c1ccc(C(F)(F)F)cn1 (single isomer, unassigned) [Example 840]",,810 nM,,
1200 nM,150 nM,,,CC[C@@H]1CN(c2cc(=O)n(C)c3ccc(C#N)nc23)[C@@H](C)CN1C(c1ccc(F)cc1)c1cccc(C(F)(F)F)n1 (stereo partly drawn) [Example 1112],,,170 nM,
610 nM,390 nM,,,"CC[C@@H]1CN(c2c(F)c(=O)n(C)c3ccc(C#N)nc23)CCN1C(c1ccc(Cl)cc1)c1ccc(Cl)cc1 [Example 178, (R)-8-(4-(bis(4-chlorophenyl)methyl)-3-ethylpiperazin-1-yl)-7-fluoro-5-methyl-6-oxo-5,6-dihydro-1,5-naphthyridine-2-carbonitrile]",580 nM,,,
500 nM,5300 nM,,,"C[C@@H]1CN(c2cc(=O)n(C)c3ccc(C#N)nc23)[C@@H](C)CN1C(CO)c1ccc(F)cc1 (single isomer, unassigned) [Example 557]",,,1600 nM,
8100 nM,50000 nM,,,Cc1ccc(C(c2cccc(F)c2)N2C[C@H](C)N(c3cc(=O)n(C)c4ccc(C#N)nc34)C[C@H]2CO)nc1 (stereo partly drawn) [Example 1154],2400 nM,,,
4900 nM,1500 nM,,,"CC[C@@H]1CN(c2c(F)c(=O)n(C)c3ccc(C#N)nc23)[C@@H](C)CN1C(C)c1ccc(OC(F)(F)F)cc1 (single isomer, unassigned) [Example 1328]",3400 nM,,,
220 nM,400 nM,,,"COCC(c1ccc(C(F)(F)F)cn1)N1C[C@H](C)N(c2cc(=O)n(C)c3ccc(C#N)nc23)C[C@H]1C (single isomer, unassigned) [Example 1278]",,,2000 nM,
1600 nM,1100 nM,,,"CCC(c1ccc(OCC2CC2)cc1)N1C[C@H](C)N(c2cc(=O)n(C)c3ccc(C#N)nc23)C[C@H]1C (single isomer, unassigned) [Example 1440]",2100 nM,,,
52 nM,450 nM,,,"CC[C@@H]1CN(c2cc(=O)n(C)c3ccc(C#N)nc23)[C@@H](C)CN1C(C)c1ccc(C#N)cc1 (single isomer, unassigned) [Example 1346]",,,6000 nM,
3700 nM,14000 nM,,,Cc1cc(CN2C[C@H](C)N(c3cc(=O)n(C)c4ccc(C#N)nc34)C[C@H]2C)no1 [Example 1424],20000 nM,,,
56000 nM,3600 nM,,,"CC(c1ccccc1OC(F)(F)F)N1C[C@H](C)N(c2cc(=O)n(C)c3ccc(C#N)nc23)C[C@H]1C (single isomer, unassigned) [Example 1213]",,,8400 nM,
680 nM,2300 nM,,,"C[C@@H]1CN(c2c(F)c(=O)n(C)c3ccc(C#N)nc23)[C@@H](C)CN1C(c1ccc(F)cc1)c1ccc(C(F)(F)F)cc1 (stereo partly drawn) [Example 325, 7-fluoro-8-((2S,5R)-4-((4-fluorophenyl)(4-(trifluoromethyl)phenyl)methyl)-2,5-dimethylpiperazin-1-yl)-5-methyl-6-oxo-5,6-dihydro-1,5-naphthyridine-2-carbonitrile]",,,3200 nM,
,,48000 nM,1000 nM,"Cc1ccc(C)c(C(C)N2CCN(c3c(C#N)c(=O)n(C)c4ccc(C#N)nc34)C[C@H]2C)c1 (single isomer, unassigned) [Example 977]",,4900 nM,,
5900 nM,7900 nM,,,C[C@@H]1CN(c2cc(=O)n(C)c3ccc(C#N)nc23)[C@@H](C)CN1Cc1ccc(OC(F)(F)F)c(C#N)c1 [Example 584],3400 nM,,,
310 nM,280 nM,,,CC[C@H]1CN(C(c2ccc(Cl)cc2)c2ccc(Cl)cc2)[C@H](CC)CN1c1cc(=O)n(C)c2ccc(C#N)nc12 [Example 1032],280 nM,,,
290 nM,1700 nM,,,"CC(c1ccc(OC(F)(F)F)cc1)N1C[C@H](C)N(c2cc(=O)n(C)c3ccc(C#N)nc23)C[C@H]1CC#N (single isomer, unassigned) [Example 1412]",1600 nM,,,
44 nM,380 nM,,,"CC[C@@H]1CN(c2cc(=O)n(C)c3ccc(C#N)nc23)[C@@H](C)CN1Cc1ccc(OC(F)F)cc1 [Example 1330, 8-((2S,5R)-4-(4-(difluoromethoxy)benzyl)-5-ethyl-2-methylpiperazin-1-yl)-5-methyl-6-oxo-5,6-dihydro-1,5-naphthyridine-2-carbonitrile]",1500 nM,,,
100 nM,350 nM,,,"C[C@@H]1CN(c2cc(=O)n(C)c3ccc(C#N)nc23)[C@@H](C)CN1C(c1ccc(F)cc1)c1ccc(C(F)(F)F)cn1 (single isomer, unassigned) [Example 681]",,,270 nM,

IC50 (human DGKα; liposome (LIPGLO) assay),IC50 (human DGKζ; liposome (LIPGLO) assay),IC50 (human DGKα; DGKα liposome (LIPGLO) assay),IC50 (human DGKζ; DGKζ liposome (LIPGLO) assay),SMILES,EC50 (Human venous whole blood; [1]),EC50 (Human venous whole blood; [2]),EC50 (Human venous whole blood; [3]),EC50 (Human venous whole blood; [4])
640 nM,690 nM,,,CC[C@@H]1CN(c2cc(=O)n(C)c3ccc(C#N)nc23)[C@@H](C)CN1Cc1c(F)cc(F)cc1F [Example 1080],240 nM,,,
33000 nM,4000 nM,,,Cc1noc(C)c1CN1C[C@H](C)N(c2cc(=O)n(C)c3ccc(C#N)nc23)C[C@H]1C [Example 1426],20000 nM,,,
980 nM,1400 nM,,,"CC[C@H]1CN(C(C)c2ccc(F)cc2F)[C@H](C)CN1c1cc(=O)n(C)c2ccc(C#N)nc12 (single isomer, unassigned) [Example 1138]",,,3700 nM,
,,3000 nM,360 nM,"C[C@@H]1CN(c2c(C#N)c(=O)n(C)c3ccc(C#N)nc23)[C@@H](C)CN1C(c1ccc(F)cc1)c1csc(C2CC2)n1 (single isomer, unassigned) [Example 859]",,3700 nM,,
53 nM,37 nM,,,"COC[C@@H]1CN(c2cc(=O)n(C)c3ccc(C#N)nc23)[C@@H](C)CN1C(c1ccc(F)cc1)c1nc(C2CC2)no1 (single isomer, unassigned) [Example 1394]",450 nM,,,
,,4500 nM,760 nM,"C[C@@H]1CN(c2cc(=O)n(C)c3ccc(C#N)nc23)[C@@H](C)CN1C(c1ccc(F)cc1)c1nnc(C2CC2)o1 (single isomer, unassigned) [Example 763]",,,,1800 nM
11000 nM,18000 nM,,,C[C@@H]1CN(c2cc(=O)n(C)c3ccc(C#N)nc23)[C@@H](C)CN1Cc1ccc(OC(F)(F)F)c(Br)c1 [Example 629],4200 nM,,,
,,3100 nM,3000 nM,"C[C@@H]1CN(c2c(C#N)c(=O)n(C)c3ccc(C#N)nc23)CCN1C(c1ccc(F)cc1)c1ncccc1F (single isomer, unassigned) [Example 891]",,,,2800 nM
1100 nM,4900 nM,,,"CC(c1ccc(OC(F)(F)F)cc1)N1C[C@H](C)N(c2cc(=O)n(C)c3ccc(C#N)nc23)C[C@H]1C (single isomer, unassigned) [Example 435]",,,2500 nM,
,,11000 nM,1700 nM,C[C@@H]1CN(c2c(C#N)c(=O)n(C)c3ccc(C#N)nc23)[C@@H](C)CN1C(c1ccc(Cl)cc1)c1ccc(Cl)cc1 [Example 805],,,,9800 nM
1400 nM,1800 nM,,,"CC(c1ccc(OC(F)(F)F)cc1F)N1C[C@H](C)N(c2cc(=O)n(C)c3ccc(C#N)nc23)C[C@H]1C (single isomer, unassigned) [Example 442]",,,7500 nM,
,,19000 nM,38000 nM,"C[C@@H]1CN(c2c(C#N)c(=O)n(C)c3ccc(C#N)nc23)[C@@H](C)CN1C(c1ccc(F)cc1)c1cn(C)cn1 (single isomer, unassigned) [Example 853]",,,,20000 nM
45 nM,550 nM,,,CC[C@@H]1CN(c2cc(=O)n(C)c3ccc(C#N)nc23)[C@@H](CC)CN1Cc1ccc(OC(F)(F)F)cc1 [Example 1363],430 nM,,,
330 nM,34 nM,,,"CC[C@H]1CN(C(C)c2ccc3c(c2)OC(F)(F)O3)[C@H](CC)CN1c1cc(=O)n(C)c2ccc(C#N)nc12 (single isomer, unassigned) [Example 1368]",,,63 nM,
86000 nM,46000 nM,,,C[C@@H]1CN(c2cc(=O)n(C)c3ccc(C#N)nc23)[C@@H](C)CN1C(c1ccc(F)cc1)c1cncn1C (stereo partly drawn) [Example 704],17000 nM,,,
97000 nM,96000 nM,,,CC(c1ccc(P(C)(C)=O)cc1)N1C[C@H](C)N(c2cc(=O)n(C)c3ccc(C#N)nc23)C[C@H]1C (stereo partly drawn) [Example 1291],,,20000 nM,
81 nM,320 nM,,,"CCC(c1ccc(OC(F)(F)F)cc1F)N1C[C@H](C)N(c2cc(=O)n(C)c3ccc(C#N)nc23)C[C@H]1C (single isomer, unassigned) [Example 440]",,,1000 nM,
,,240000 nM,2200 nM,"COC(=O)c1cccc(C(C)N2C[C@H](C)N(c3c(C#N)c(=O)n(C)c4ccc(C#N)nc34)C[C@H]2C)c1 (single isomer, unassigned) [Example 796]",,20000 nM,,

# — patent US10669272B2, “Substituted naphthyridinone compounds useful as T cell activators” (BRISTOL-MYERS SQUIBB COMPANY, priority 2018, dated 2020)
